In this experiment the target is T1, 5-hydroxytryptamine receptor 1A (Rattus norvegicus, UniProt P19327).
T1 sequence (P19327 whole entry): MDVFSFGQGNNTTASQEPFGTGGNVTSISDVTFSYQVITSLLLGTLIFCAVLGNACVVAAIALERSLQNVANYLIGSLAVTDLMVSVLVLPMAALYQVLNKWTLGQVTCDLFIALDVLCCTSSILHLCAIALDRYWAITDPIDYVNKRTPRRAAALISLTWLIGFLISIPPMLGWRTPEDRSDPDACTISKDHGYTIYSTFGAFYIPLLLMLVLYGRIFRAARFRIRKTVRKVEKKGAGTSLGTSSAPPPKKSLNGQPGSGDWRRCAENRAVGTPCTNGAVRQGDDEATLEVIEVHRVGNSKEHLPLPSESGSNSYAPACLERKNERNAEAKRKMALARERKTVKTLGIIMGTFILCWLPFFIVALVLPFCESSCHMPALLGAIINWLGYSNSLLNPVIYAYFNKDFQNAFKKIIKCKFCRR
The experiment is described as follows: Displacement of [3H]8-OH-DPAT from 5HT1A receptor in rat hippocampal membranes. Background: Displacement assays read how much labelled ligand stays bound in the presence of the test substance.

In BindingDB's records for doi:10.1016/j.ejmech.2008.03.019 (Institute of Pharmacology of The Polish Academy of Sciences, 2008) one finds Ki data, which are given here for one compound.

Broadly, the Ki is the equilibrium dissociation constant of an inhibitor or competing ligand from its target. `CC1CC2(C)CC(=O)C1C1C(=O)N(OCCCN3CCN(c4ccccc4F)CC3)C(=O)C12` (stereo unspecified) [4-{3-[4-(2-Fluorophenyl)piperazin-1-yl]propoxy}-1,11-dimethyl-4-azatricyclo[5.2.2.0(2,6)]undecane-3,5,8-trione] gave a Ki of 0.331 µM.
